For orientation: EC50 means the midpoint of the concentration-response curve. Lower therefore signals greater potency.

The text below walks through data of patent publication EP2114875B1, “SUBSTITUTED ARYLCYLOPENTENES AS THERAPEUTIC AGENTS” (ALLERGAN, INC., priority 2007, dated 2008).

Assay [1] concerns the target T1, hEP4 (Homo sapiens, UniProt P35408). The assay is described as follows: hEP4 flipr assay. It is filed as cell-based. The source says:
(§1) United States Patent Application Serial No. 11/553,143, filed on October 26, 2006, describes the methods used to obtain the in vitro data in the table below.

Assay [2] deals with T1, hEP4. The assay is described as follows: hEP4 binding.
Source text: as §1

Assay [3] has as its target T2, hEP2 (Homo sapiens, UniProt P43116). The assay is described as follows: hEP2 cAMP assay. The format is cell-based.
Source text: as §1
For orientation: Changes in cAMP serve as a functional read-out for many G protein-coupled receptors.

Assay [4] has as its target T2, hEP2. The assay can be described thus: hEP2 flipr assay. It is filed as cell-based.
Source text: as §1

The target in assay [5] is T2, hEP2. The assay can be described thus: hEP2 binding. To be noted: read-out: hEP2 Kl.
Source text: as §1

T2 sequence (P43116 whole entry): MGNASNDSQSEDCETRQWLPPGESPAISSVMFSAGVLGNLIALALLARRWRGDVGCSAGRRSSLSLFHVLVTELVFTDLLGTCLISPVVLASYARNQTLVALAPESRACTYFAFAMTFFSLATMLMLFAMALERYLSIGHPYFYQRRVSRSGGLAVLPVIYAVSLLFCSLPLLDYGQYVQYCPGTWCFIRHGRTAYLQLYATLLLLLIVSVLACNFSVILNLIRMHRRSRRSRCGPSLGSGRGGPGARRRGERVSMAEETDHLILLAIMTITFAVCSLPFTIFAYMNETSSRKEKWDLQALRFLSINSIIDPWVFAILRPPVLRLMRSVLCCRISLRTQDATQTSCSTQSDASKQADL
T1 sequence (P35408 whole entry): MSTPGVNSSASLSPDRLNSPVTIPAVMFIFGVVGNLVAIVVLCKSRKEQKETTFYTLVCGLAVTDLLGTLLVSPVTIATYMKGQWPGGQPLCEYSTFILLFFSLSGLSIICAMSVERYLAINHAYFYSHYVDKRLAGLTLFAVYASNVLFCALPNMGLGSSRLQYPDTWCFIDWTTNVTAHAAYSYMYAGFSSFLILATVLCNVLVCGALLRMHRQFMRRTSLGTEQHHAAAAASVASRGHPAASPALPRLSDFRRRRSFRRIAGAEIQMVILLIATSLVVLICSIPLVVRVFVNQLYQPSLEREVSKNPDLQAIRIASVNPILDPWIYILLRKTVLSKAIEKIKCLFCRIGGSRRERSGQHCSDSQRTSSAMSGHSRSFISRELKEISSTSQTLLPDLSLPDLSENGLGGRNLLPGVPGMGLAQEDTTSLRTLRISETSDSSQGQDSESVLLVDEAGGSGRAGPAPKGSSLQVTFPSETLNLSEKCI

On to `O=C(O)c1ccc(CCCC2=CC[C@@H](O)[C@@H]2COc2cc(Cl)cc(Cl)c2)s1` [Example 1, 5-{3[(4R,5S)-5-(3,5-Dichloro-phenoxymethyl)-4-hydroxy-cyclopent·1-enyl]-propyl}-thiophene-2-carboxylic acid], for which the 50% effective concentration (EC50) on hEP4 [1] was above 10000 nM; at hEP2 [3] it was 4.8 nM; at hEP2 [4], 424 nM. Besides, the Ki at hEP4 [2] is 1580 nM; on hEP2 [5] it was 81 nM.
